According to patent US7608601B2, “4′-Substituted nucleoside derivatives as inhibitors of HCV RNA replication” (Roche Palo Alto LLC, priority 2001, dated 2009):

How the values were obtained:
HCV replicon RNA = assay: Renilla luciferase HCV replicon assay; assay type: cell-based, Hepatitis C Virus; details: Huh7 2209-23 cells, three days
[1] = system: Renilla Luciferase HCV replicon cells (2209-23); assay: WST-1 cytotoxicity assay; assay type: cell-based, human; details: 2209-23 cells, three days
Method: For the assay procedure, Renilla Luciferase HCV replicon cells (2209-23) that cultured in Dulbecco's MEM (GibcoBRL cat no. 31966-021) with 5% fetal calf serum (FCS, GibcoBRL cat. no. 10106-169) were plated onto a 96-well plate at 5000 cells per well, and incubated overnight. Twenty-four hours later, different dilutions of chemical compounds in the growth medium were added to the cells, which were then further incubated at 37° C. for three days. The assay was carried out in duplicate plates, one in opaque white and one in transparent, in order to measure the activity and cytotoxicity of a chemical compound in parallel ensuring the activity seen is not due to reduction on cell proliferation.
For the cytotoxicity assay, WST-1 reagent from Roche Diagnostic (cat no. 1644807) was used. Ten microlitre of WST-1 reagent was added to each well including wells that contain media alone as blanks. Cells were then incubated for 1 to 1.5 hours at 37° C., and the OD value was measured by a 96-well plate reader at 450 nm (reference filter at 650 nm). Again CC50, the concentration of the drug required for reducing cell proliferation by 50% in relation to the untreated cell control value, can be calculated from the plot of percentage reduction of the WST-1 value vs. drug concentration.

Row | SMILES | IC50 (HCV replicon RNA; Hepatitis C virus, Huh-7, 72 h, concentration reducing replicon level by 50% vs untreated control) | CC50(μM) WST-1, given as % at a concentration ([1]; at 100 μM) | IC50 (μM), given as % at a concentration (HCV replicon RNA; at 20 μM) | CC50(μM) WST-1, given as % at a concentration ([1]; at 20 μM)
1 | [N-]=[N+]=N[C@]1(CO)O[C@@H](n2ccc(N)nc2=O)[C@H](O)[C@@H]1O [compound 1, 4′-C-Azidocytidine] | 1.2 µM | 0% (100 μM) |  | 
2 | C#C[C@]1(CO)O[C@@H](n2ccc(N)nc2=O)[C@H](O)[C@@H]1O.Cl [compound 3, 4′-C-Ethynylcytidine hydrochloride (1:1)] |  |  | 3% (20 μM) | 0% (20 μM)
